This experiment has as its system SKN-1A. The experiment in a line: rpt-3p::GFP reporter in C. elegans strain GR2183. Format: in vivo, Caenorhabditis elegans. From the text:
Firstly, we investigated whether RUN-89 triggers SKN-1A activation in C. elegans by using the GR2183 strain. By using this strain, the activation of SKN-1A is indicated by GFP expression, which is driven by the promoter of the proteasome subunit gene (rpt-3p::GFP).[80,81]
Figure S9. RUN-89 activates the NFE2L1 orthologue gene SKN-1A in C. elegans.
In the GR2183 strain, activation of the SKN-1A is reported by the expression of GFP under the control of the proteasome subunit gene promoter (rpt-3p::GFP). Animals were treated with 25 µM RUN-89 or DMSO (vehicle control) for 24 hours with subsequent microscopic analysis.
Results of relative GFP fluorescence intensity per single animal are presented. Overall, 71 animals (n | DMSO = 20, RUN-89 = 21) from three independent experiments ( N) were analyzed.
The two dashed horizontal lines indicate the interquartile range, and the thick horizontal line represents the median. A significant increase in fluorescence intensity after RUN-89 treatment was verified by a Kolmogorov-Smirnov test. ***p<0.001. […]
Transgenic GR2183 worms carrying the reporter gene (rpt -3p::GFP) were exposed to RUN-89 for 24 hours and for AM140 (rmIs132 [unc-54p::Q35::YFP]) to aged 6 days under treatment to establish protein aggregation model. The worms were then anesthetized with […] sodium azide and placed on glass slides with 5% agar for fluorescence microscope observation. […]

The structures appear in SMILES notation.

For the compound `COc1ccc(/C=C2\CC(NC(=O)C3CCCC3)C/C(=C\c3ccc(OC)c(OC)c3)C2=O)cc1OC` (centres unmarked) [RUN-89], the “Average relative fluorescence intensity per GR2183 animal” value (25 μM, 24 h, 20 °C, young adults, versus vehicle) is given as “significantly higher”. For the setting “GR2183, DMSO median = 100.00, Figure S9”, the “Median rpt-3p::GFP (SKN-1A reporter)” value is 114.62.

The values above are taken from article PMC12606464, “Investigating NFE2L1 activators for targeted protein aggregate clearance: a follow-up study” (RSC Medicinal Chemistry, 2025).
